Measurements reported in the supplement of paper PMC11061612.

Key:
Assay in all cases: combination Emax (second highest fraction inhibited in the dose matrix, 72 h); higher = more inhibition; extreme values may be limits of the assay
[1] = tested on: 8-MG-BA (Glioblastoma)
Procedure, shortened: (§1)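 Cell lines in DMEM/F12 or RPMI with 10% FBS were plated in 1536-well plates, held 24 hours at 37°C, 5% CO2, then given two-drug dose matrices for 72 hours (DMSO typically 0.2%). Viability was read by CellTiter-Glo 2.0 luminescence and scaled as inhibition from 0 (vehicle wells) to 1 (blank wells). Combination Emax is the second-highest inhibition in the matrix; Bliss excess is observed combination effect minus expected EA + EB − EA·EB, EA and EB being single-agent effects.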

[2] = tested on: A3-KAW (B-Cell Non-Hodgkin's Lymphoma)
Procedure, shortened: as §1

[3] = tested on: A498 (Kidney Carcinoma)
Procedure, shortened: as §1

[4] = tested on: ARH-77 (Non-Cancerous)
Procedure, shortened: as §1

[5] = tested on: BICR22 (Oral Cavity Carcinoma)
Procedure, shortened: as §1

[6] = tested on: COLO-320-HSR (Colorectal Carcinoma)
Procedure, shortened: as §1

[7] = tested on: COR-L311 (Small Cell Lung Carcinoma)
Procedure, shortened: as §1

[8] = tested on: ECC10 (Gastric Carcinoma)
Procedure, shortened: as §1

[9] = tested on: Hs-445 (Non-Cancerous)
Procedure, shortened: as §1

[10] = tested on: IGR-37 (Melanoma)
Procedure, shortened: as §1

[11] = tested on: KARPAS-422 (B-Cell Non-Hodgkin's Lymphoma)
Procedure, shortened: as §1

[12] = tested on: MDST8 (Colorectal Carcinoma)
Procedure, shortened: as §1

[13] = tested on: NCI-H1693 (Lung Adenocarcinoma)
Procedure, shortened: as §1

[14] = tested on: NCI-H2066 (Squamous Cell Lung Carcinoma)
Procedure, shortened: as §1

[15] = tested on: NCI-H2141 (Small Cell Lung Carcinoma)
Procedure, shortened: as §1

[16] = tested on: NCI-H2591 (Mesothelioma)
Procedure, shortened: as §1

[17] = tested on: NCI-H64 (Small Cell Lung Carcinoma)
Procedure, shortened: as §1

[18] = tested on: PANC-10-05 (Pancreatic Carcinoma)
Procedure, shortened: as §1

[19] = tested on: SK-MES-1 (Squamous Cell Lung Carcinoma)
Procedure, shortened: as §1

[20] = tested on: TT2609-C02 (Thyroid Gland Carcinoma)
Procedure, shortened: as §1

| SMILES | combination Emax [1] | combination Emax [2] | combination Emax [3] | combination Emax [4] | combination Emax [5] | combination Emax [6] | combination Emax [7] | combination Emax [8] | combination Emax [9] | combination Emax [10] | combination Emax [11] | combination Emax [12] | combination Emax [13] | combination Emax [14] | combination Emax [15] | combination Emax [16] | combination Emax [17] | combination Emax [18] | combination Emax [19] | combination Emax [20] |
| --- | --- | --- | --- | --- | --- | --- | --- | --- | --- | --- | --- | --- | --- | --- | --- | --- | --- | --- | --- | --- |
| CN(CCO)CC[C@H](CSc1ccccc1)Nc1ccc(S(=O)(=O)NC(=O)c2ccc(N3CCC([C@@H](O)c4ccccc4-c4ccc(Cl)cc4)CC3)cc2)cc1S(=O)(=O)C(F)(F)F [AZD4320] + CN(C)CCCOc1ccc(-c2ccc3ncc4c(c3c2)n(C2CCOCC2)c(=O)n4C)cn1 [AZD0156] (first compound max 1 µM, 7x7, partner max 1 µM) | 0.0798 | 0.228 | 0.254 | 0.793 | 0.546 | 0.01 | 1 | 1 | 0.497 | 0.116 | 0.957 | 0.772 | 0.19 | 0.619 | 0.801 | 0.13 | 0.973 | 0.373 | 0.208 | 0.148 |
| CC(=O)c1c(C)c2cnc(Nc3ccc(N4CCNCC4)cn3)nc2n(C2CCCC2)c1=O [Palbociclib] + Cn1cnc2c(F)c(Nc3ccc(Br)cc3Cl)c(C(=O)NOCCO)cc21 [Selumetinib] (first compound max 10 µM, 7x7, partner max 10 µM) | 0.321 | 0.869 | 0.372 | 0.61 | 0.477 | 0.177 | 0.231 | 0.539 | 0.262 | 0.872 | 0.81 | 0.671 | 0.38 | 0.244 | 0.139 | 0.288 | 0.19 | 0.521 | 0.645 | 0.527 |
| CC1(C)CCC(CN2CCN(c3ccc(C(=O)NS(=O)(=O)c4ccc(NCC5CCOCC5)c([N+](=O)[O-])c4)c(Oc4cnc5[nH]ccc5c4)c3)CC2)=C(c2ccc(Cl)cc2)C1 [Venetoclax] + Cn1cnc2c(F)c(Nc3ccc(Br)cc3Cl)c(C(=O)NOCCO)cc21 [Selumetinib] (first compound max 1 µM, 7x7, partner max 3 µM) | 0.124 | 0.216 | 0.433 | 0.369 | 0.141 | 0.083 | 0.635 | 0.937 | 0.395 | 0.879 | 0.793 | 0.646 | 0.26 | 0.191 | 0.159 | 0.171 | 0.239 | 0.398 | 0.345 | 0.55 |
| Cc1cc2ncnn2cc1Nc1ncc2c(n1)n(C1CCOCC1)c(=O)n2C [AZD7648] + CN(C)CCCOc1ccc(-c2ccc3ncc4c(c3c2)n(C2CCOCC2)c(=O)n4C)cn1 [AZD0156] (first compound max 10 µM, 7x7, partner max 1 µM) | 0.31 | 0.597 | 0.401 | 0.54 | 0.384 | 0.27 | 0.256 | 0.323 | 0.313 | 0.263 | 0.479 | 0.439 | 0.222 | 0.321 | 0.229 | 0.334 | 0.279 | 0.483 | 0.28 | 0.0937 |
| NC1(C(=O)N[C@@H](CCO)c2ccc(Cl)cc2)CCN(c2ncnc3[nH]ccc23)CC1 [Capivasertib] + CCN(CCO)CCCOc1ccc2c(Nc3cc(CC(=O)Nc4cccc(F)c4)[nH]n3)ncnc2c1 [AZD2811] (first compound max 10 µM, 7x7, partner max 1 µM) | 0.508 | 0.674 | 0.586 | 0.748 | 0.562 | 0.174 | 0.915 | 0.86 | 0.678 | 0.371 | 0.531 | 0.511 | 0.36 | 0.534 | 0.345 | 0.297 | 0.668 | 0.42 | 0.36 | 0.542 |
| Cn1cnc2c(F)c(Nc3ccc(Br)cc3Cl)c(C(=O)NOCCO)cc21 [Selumetinib] + CC(C)n1c(=O)n(C)c2cnc3cc(F)c(-c4ccc(OCCCN5CCCCC5)nc4)cc3c21 [AZD1390] (first compound max 10 µM, 7x7, partner max 0.3 µM) | 0.116 | 0.408 | 0.318 | 0.318 | 0.334 | 0.181 | 0.109 | 0.202 | 0.288 | 0.76 | 0.123 | 0.537 | 0.204 | 0.254 | 0.0858 | 0.199 | 0.105 | 0.402 | 0.464 | 0.663 |
| Cc1c2c(nn1C)CSCc1cc(n(C)n1)CSc1cc(c3ccccc3c1)OCCCc1c(C(=O)O)n(C)c3c-2c(Cl)ccc13 [AZD5991] + C1CN(CCC1(C(=O)N[C@@H](CCO)C2=CC=C(C=C2)Cl)N)C3=NC=NC4=C3C=CN4 [Capivasertib] (first compound max 1 µM, 7x7, partner max 3 µM) | 0.85 | 1 | 0.561 | 0.915 | 0.689 | 0.845 | 0.718 | 0.721 | 0.988 | 0.207 | 0.994 | 0.269 | 0.164 | 0.424 | 0.314 | 0.191 | 0.378 | 0.357 | 0.262 | 0.227 |
| CC(=O)c1c(C)c2cnc(Nc3ccc(N4CCNCC4)cn3)nc2n(C2CCCC2)c1=O [Palbociclib] + Cc1c2c(nn1C)CSCc1cc(n(C)n1)CSc1cc(c3ccccc3c1)OCCCc1c(C(=O)O)n(C)c3c-2c(Cl)ccc13 [AZD5991] (first compound max 10 µM, 7x7, partner max 1 µM) | 0.63 | 1 | 0.406 | 0.556 | 0.176 | 0.965 | 0.534 | 0.911 | 0.337 | 0.325 | 0.966 | 0.223 | 0.431 | 0.198 | 0.309 | 0.279 | 0.213 | 0.329 | 0.266 | 0.275 |
| CCN(CCO)CCCOc1ccc2c(Nc3cc(CC(=O)Nc4cccc(F)c4)[nH]n3)ncnc2c1 [AZD2811] + C[C@@H]1COCCN1C2=NC(=NC(=C2)C3(CC3)[S@](=N)(=O)C)C4=C5C=CNC5=NC=C4 [AZD6738] (first compound max 1 µM, 7x7, partner max 10 µM) | 0.785 | 0.968 | 0.647 | 0.941 | 0.729 | 0.599 | 0.577 | 0.876 | 0.832 | 0.711 | 0.565 | 0.724 | 0.232 | 0.339 | 0.502 | 0.315 | 0.781 | 0.389 | 0.668 | 0.331 |
| COc1nnc2ccc(N3CCC(c4ccc(OCCN5CCN(C)C(=O)[C@H]5C)cc4)CC3)nn12 [AZD5153] + Cn1cnc2c(F)c(Nc3ccc(Br)cc3Cl)c(C(=O)NOCCO)cc21 [Selumetinib] (first compound max 1 µM, 7x7, partner max 10 µM) | 0.796 | 1 | 0.867 | 0.839 | 0.564 | 0.333 | 0.847 | 0.955 | 0.555 | 1 | 0.68 | 0.826 | 0.569 | 0.345 | 0.276 | 0.629 | 0.237 | 0.633 | 0.717 | 0.652 |
| CC1(C)CCC(CN2CCN(c3ccc(C(=O)NS(=O)(=O)c4ccc(NCC5CCOCC5)c([N+](=O)[O-])c4)c(Oc4cnc5[nH]ccc5c4)c3)CC2)=C(c2ccc(Cl)cc2)C1 [Venetoclax] + COc1cc(Nc2ncc3c(n2)-c2ccc(Cl)cc2C(c2c(F)cccc2OC)=NC3)ccc1C(=O)O [Alisertib] (first compound max 1 µM, 7x7, partner max 10 µM) | 0.447 | 0.759 | 0.386 | 0.932 | 0.501 | 0.296 | 0.842 | 0.963 | 0.857 | 0.486 | 0.858 | 0.329 | 0.344 | 0.285 | 0.518 | 0.298 | 0.692 | 0.302 | 0.4 | 0.426 |
| CCN(CCO)CCCOc1ccc2c(Nc3cc(CC(=O)Nc4cccc(F)c4)[nH]n3)ncnc2c1 [AZD2811] + O=C(c1cc(Cc2n[nH]c(=O)c3ccccc23)ccc1F)N1CCN(C(=O)C2CC2)CC1 [Olaparib] (first compound max 1 µM, 7x7, partner max 10 µM) | 0.52 | 0.688 | 0.241 | 0.474 | 0.362 | 0.0695 | 0.673 | 0.835 | 0.426 | 0.0609 | 0.375 | 0.338 | 0.236 | 0.214 | 0.307 | 0.182 | 0.434 | 0.181 | 0.271 | 0.299 |
